According to US20160263097A1 (Bristol-Myers Squibb Company, priority 2012, published 2016):
“And” between values parts separate entries of the source, which are not always exact repeats. Identical values can stand only once.

How the values were obtained:
Type in all cases: in vivo, human
[1] = Safety assessments in the studies (adverse events, vital signs, ECGs, laboratory tests); conditions: healthy subjects in the studies, 5 or 10 mg single doses
From the text: Safety assessments were made based on adverse event reports and the results of vital sign measurements, ECGs, physical examinations, and clinical laboratory tests.

[2] = Study 2: open-label 3-way crossover, liquid formulation oral vs NGT with D5W or infant formula flush; conditions: for half-life / Tmax / AUC(0-t) / AUC(0-inf): human, plasma, 5 mg
Protocol: (§1) Frel of a crushed tablet administered via NGT versus oral liquid formulation was also evaluated. […] The effect of different flush media [D5W and infant formula (Similac®)] and coadministered nutritional supplement (Boost Plus®) on the liquid formulation's bioavailability was assessed.
(§2) Three open-label, randomized, crossover studies were conducted. […] Serial pharmacokinetics samples were collected. […] Frel was defined as the ratio of AUCinf.
(§3) Key exclusion criteria included: (i) any history or evidence of abnormal bleeding or coagulation disorders, intracranial hemorrhage, or abnormal bleeding; (ii) any gastrointestinal surgery that could impact upon the absorption of study drug; and (iii) current or recent (within 3 months) gastrointestinal disease including, but not limited to dyspepsia, gastrointestinal ulcers, esophageal or gastric varices, or hemorrhoids.

[3] = Study 1: open-label 2-way crossover relative bioavailability, tablet vs oral liquid formulation; conditions: for Tmax / AUC(0-t) / AUC(0-inf) / half-life: human, plasma; for half-life: read-out: T1/2 Mean (converted)
Protocol: as §1, §2, §3

[4] = Study 3: open-label 3-way crossover, liquid formulation oral vs NGT with Boost Plus vs crushed tablet via NGT; conditions: for half-life / AUC(0-t) / AUC(0-inf) / Tmax: human, plasma, 5 mg; for Tmax: read-out: Tmax Median
Protocol: as §1, with “The apixaban liquid formulation was administered orally (PO), via nasogastric tube (NGT) with different flush media, or with an enteral meal (BOOST Plus®). Frel” for “Frel”
as §2, §3

[5] = Study 1, Treatment A: 2 × 5 mg Phase 3 tablets, oral, healthy subjects

In the case of COc1ccc(-n2nc(C(N)=O)c3c2C(=O)N(c2ccc(N4CCCCC4=O)cc2)CC3)cc1 [Apixaban, 4,5,6,7-tetrahydro-1-(4-methoxyphenyl)-7-oxo-6-[4-(2-oxo-1-piperidinyl)phenyl]-1H-pyrazolo[3,4-c]pyridine-3-carboxamide], the “safety and tolerability” value [1] is reported as “safe and well tolerated”, the Cmax Geo. Mean ([2]; Study 2, Treatment A: 5 mg (12.5 mL) liquid formulation by mouth via oral syringe) is reported as 189 ng/mL and the Cmax Adj.Geo.Mean ([2]; Study 2, Treatment A: liquid formulation by mouth) is reported as 191 ng/mL. The Cmax Adj.Geo.Mean ([2]; Study 2, Treatment B: liquid formulation via NGT, D5W flush) was 182 ng/mL, the “Frel Geo. Mean” value ([2]; Study 2, Treatment C (NGT, infant formula flush) versus oral liquid formulation) was 0.922 and the Cmax Geo. Mean ([2]; Study 2, Treatment C: 5 mg (12.5 mL) liquid formulation via NGT followed by 60 mL of infant formula via NGT) was 153 ng/mL. The Cmax Adj.Geo.Mean ([2]; Study 2, Treatment C: liquid formulation via NGT, infant formula flush) was 154 ng/mL, the Frel ([2]; Study 2, liquid formulation via NGT flushed with 60 mL infant formula versus oral liquid formulation) was 92.2% and 92% and the half-life ([2]; Study 2, across the 3 treatments, read-out: mean T1/2 (converted)) was ~10.5 h. The Tmax ([2]; Study 2, across the 3 treatments, read-out: median Tmax) was 0.5 to 1 h, the AUC(0-t) ([2]; oral, Study 2, Treatment A: liquid formulation by mouth, read-out: AUC(0-T) Adj.Geo.Mean) was 1270 ng·h/mL and the AUC(0-inf) ([2]; oral, Study 2, Treatment A: liquid formulation by mouth, read-out: AUCinf Adj.Geo.Mean) was 1290 ng·h/mL. It also gave an AUC(0-t) ([2]; other: via nasogastric tube (NGT), Study 2, Treatment B: liquid formulation via NGT, D5W flush, read-out: AUC(0-T) Adj.Geo.Mean) of 1230 ng·h/mL, an AUC(0-inf) ([2]; other: via nasogastric tube (NGT), Study 2, Treatment B: liquid formulation via NGT, D5W flush, read-out: AUCinf Adj.Geo.Mean) of 1250 ng·h/mL and an AUC(0-t) ([2]; other: via nasogastric tube (NGT), Study 2, Treatment C: liquid formulation via NGT, infant formula flush, read-out: AUC(0-T) Adj.Geo.Mean) of 1170 ng·h/mL. For the same compound, the AUC(0-inf) ([2]; other: via nasogastric tube (NGT), Study 2, Treatment C: liquid formulation via NGT, infant formula flush, read-out: AUCinf Adj.Geo.Mean) was 1190 ng·h/mL, the AUC(0-t) ([2]; po, Study 2, Treatment A: 5 mg (12.5 mL) liquid formulation by mouth via oral syringe, read-out: AUC(0-T) Geo. Mean) was 1260 ng·h/mL and the AUC(0-inf) ([2]; po, Study 2, Treatment A: 5 mg (12.5 mL) liquid formulation by mouth via oral syringe, read-out: AUCinf Geo. Mean) was 1280 ng·h/mL. For the same compound, the half-life ([2]; po, Study 2, Treatment A: 5 mg (12.5 mL) liquid formulation by mouth via oral syringe, read-out: T1/2 Mean (converted)) was 10.5 h, the Tmax ([2]; po, Study 2, Treatment A: 5 mg (12.5 mL) liquid formulation by mouth via oral syringe, read-out: Tmax Median) was 0.517 h and the AUC(0-t) ([2]; po, Study 2, Treatment B: 5 mg (12.5 mL) liquid formulation via NGT followed by 60 mL of D5W via NGT, read-out: AUC(0-T) Geo. Mean) was 1210 ng·h/mL. It also gave an AUC(0-inf) ([2]; po, Study 2, Treatment B: 5 mg (12.5 mL) liquid formulation via NGT followed by 60 mL of D5W via NGT, read-out: AUCinf Geo. Mean) of 1240 ng·h/mL, a half-life ([2]; po, Study 2, Treatment B: 5 mg (12.5 mL) liquid formulation via NGT followed by 60 mL of D5W via NGT, read-out: T1/2 Mean (converted)) of 10.4 h and a Tmax ([2]; po, Study 2, Treatment B: 5 mg (12.5 mL) liquid formulation via NGT followed by 60 mL of D5W via NGT, read-out: Tmax Median) of 1 h. For the same compound, the AUC(0-t) ([2]; po, Study 2, Treatment C: 5 mg (12.5 mL) liquid formulation via NGT followed by 60 mL of infant formula via NGT, read-out: AUC(0-T) Geo. Mean) was 1150 ng·h/mL, the AUC(0-inf) ([2]; po, Study 2, Treatment C: 5 mg (12.5 mL) liquid formulation via NGT followed by 60 mL of infant formula via NGT, read-out: AUCinf Geo. Mean) was 1180 ng·h/mL and the half-life ([2]; po, Study 2, Treatment C: 5 mg (12.5 mL) liquid formulation via NGT followed by 60 mL of infant formula via NGT, read-out: T1/2 Mean (converted)) was 10.6 h. For the same compound, the Tmax ([2]; po, Study 2, Treatment C: 5 mg (12.5 mL) liquid formulation via NGT followed by 60 mL of infant formula via NGT, read-out: Tmax Median) was 1 h, the Cmax Adj.Geo.Mean ([3]; Study 1, Treatment A: 2 × 5 mg Phase 3 tablets) was 294 ng/mL and the Cmax Geo. Mean [3, 5] was 294 ng/mL. The “Tmax Median” value [3, 5] was 2 h, the Cmax Adj.Geo.Mean ([3]; Study 1, Treatment B: 25 mL × 0.4 mg/mL liquid formulation) was 287 ng/mL and the Cmax Geo. Mean ([3]; Study 1, Treatment B: 25 mL × 0.4 mg/mL liquid formulation, oral, healthy subjects) was 287 ng/mL. For the same compound, the Tmax ([3]; 10 mg, Study 1, Treatment B: 25 mL × 0.4 mg/mL liquid formulation, oral, healthy subjects, read-out: Tmax Median) was 2 h, the AUC(0-t) ([3]; oral, 10 mg, Study 1, Treatment A: 2 × 5 mg Phase 3 tablets, read-out: AUC(0-T) Adj.Geo.Mean) was 2670 ng·h/mL and the AUC(0-inf) ([3]; oral, 10 mg, Study 1, Treatment A: 2 × 5 mg Phase 3 tablets, read-out: AUCinf Adj.Geo.Mean) was 2710 ng·h/mL. The AUC(0-t) ([3]; oral, 10 mg, Study 1, Treatment B: 25 mL × 0.4 mg/mL liquid formulation, read-out: AUC(0-T) Adj.Geo.Mean) was 2780 ng·h/mL, the AUC(0-inf) ([3]; oral, 10 mg, Study 1, Treatment B: 25 mL × 0.4 mg/mL liquid formulation, read-out: AUCinf Adj.Geo.Mean) was 2850 ng·h/mL and the AUC(0-t) ([3]; po, 10 mg, Study 1, Treatment A: 2 × 5 mg Phase 3 tablets, oral, healthy subjects, read-out: AUC(0-T) Geo. Mean) was 2660 ng·h/mL. For the same compound, the AUC(0-inf) ([3]; po, 10 mg, Study 1, Treatment A: 2 × 5 mg Phase 3 tablets, oral, healthy subjects, read-out: AUCinf Geo. Mean) was 2710 ng·h/mL, the half-life ([3]; po, 10 mg, Study 1, Treatment A: 2 × 5 mg Phase 3 tablets, oral, healthy subjects) was 12.3 h and the AUC(0-t) ([3]; po, 10 mg, Study 1, Treatment B: 25 mL × 0.4 mg/mL liquid formulation, oral, healthy subjects, read-out: AUC(0-T) Geo. Mean) was 2790 ng·h/mL. The AUC(0-inf) ([3]; po, 10 mg, Study 1, Treatment B: 25 mL × 0.4 mg/mL liquid formulation, oral, healthy subjects, read-out: AUCinf Geo. Mean) was 2860 ng·h/mL, the half-life ([3]; po, 10 mg, Study 1, Treatment B: 25 mL × 0.4 mg/mL liquid formulation, oral, healthy subjects) was 13.8 h and the Tmax ([3]; summary over all treatments of Studies 1-3 except BOOST Plus, read-out: Tmax median) was 0.5 to 2 h. For the same compound, the Cmax Geo. Mean (% CV) ([4]; Study 3, TRT A: 5 mg oral liquid formulation (0.4 mg/mL × 12.5 mL) administered orally) was 177 ng/mL, the Cmax Adj.Geo.Mean ([4]; Study 3, TRT A: 5 mg oral liquid formulation administered orally) was 179 ng/mL and the “Frel Geo. Mean” value ([4]; Study 3, TRT B (liquid formulation after Boost Plus via NGT) versus oral liquid formulation) was 0.813. The Cmax Geo. Mean (% CV) ([4]; Study 3, TRT B: 5 mg oral liquid formulation (0.4 mg/mL × 12.5 mL) after Boost Plus via NGT) was 121 ng/mL, the Cmax Adj.Geo.Mean ([4]; Study 3, TRT B: 5 mg oral liquid formulation after Boost Plus via NGT) was 122 ng/mL and the “Frel Geo. Mean” value ([4]; Study 3, TRT C (crushed tablet via NGT) versus oral liquid formulation) was 0.951. The Cmax Adj.Geo.Mean ([4]; Study 3, TRT C: 5 mg crushed tablet via NGT) was 158 ng/mL, the Cmax Geo. Mean (% CV) ([4]; Study 3, TRT C: 5 mg crushed tablet via NGT (suspended in 60 mL D5W)) was 158 ng/mL and the Frel ([4]; Study 3, crushed tablet via NGT versus oral liquid formulation) was 95%. The Frel ([4]; Study 3, liquid formulation with BOOST Plus via NGT versus oral liquid formulation) was 81%, the half-life ([4]; Study 3, between the 3 treatments, read-out: mean T1/2) was 9.6 to 11.2 h and the AUC(0-t) ([4]; other: via nasogastric tube (NGT), Study 3, TRT C: 5 mg crushed tablet via NGT (suspended in 60 mL D5W), read-out: AUC(0-T) Geo. Mean (% CV)) was 1300 ng·h/mL. It also gave an AUC(0-inf) ([4]; other: via nasogastric tube (NGT), Study 3, TRT C: 5 mg crushed tablet via NGT (suspended in 60 mL D5W), read-out: AUCinf Geo. Mean (% CV)) of 1320 ng·h/mL, a half-life ([4]; other: via nasogastric tube (NGT), Study 3, TRT C: 5 mg crushed tablet via NGT (suspended in 60 mL D5W), read-out: T1/2 Mean (converted)) of 10.4 h and a Tmax ([4]; other: via nasogastric tube (NGT), Study 3, TRT C: 5 mg crushed tablet via NGT (suspended in 60 mL D5W)) of 1 h. For the same compound, the AUC(0-t) ([4]; other: via nasogastric tube (NGT), Study 3, TRT C: 5 mg crushed tablet via NGT, read-out: AUC(0-T) Adj.Geo.Mean) was 1300 ng·h/mL, the AUC(0-inf) ([4]; other: via nasogastric tube (NGT), Study 3, TRT C: 5 mg crushed tablet via NGT, read-out: AUCinf Adj.Geo.Mean) was 1330 ng·h/mL and the AUC(0-t) ([4]; po, Study 3, TRT A: 5 mg oral liquid formulation (0.4 mg/mL × 12.5 mL) administered orally, read-out: AUC(0-T) Geo. Mean (% CV)) was 1350 ng·h/mL. The AUC(0-inf) ([4]; po, Study 3, TRT A: 5 mg oral liquid formulation (0.4 mg/mL × 12.5 mL) administered orally, read-out: AUCinf Geo. Mean (% CV)) was 1380 ng·h/mL, the half-life ([4]; po, Study 3, TRT A: 5 mg oral liquid formulation (0.4 mg/mL × 12.5 mL) administered orally, read-out: T1/2 Mean (converted)) was 11.2 h and the Tmax ([4]; po, Study 3, TRT A: 5 mg oral liquid formulation (0.4 mg/mL × 12.5 mL) administered orally) was 1 h. The AUC(0-t) ([4]; po, Study 3, TRT A: 5 mg oral liquid formulation administered orally, read-out: AUC(0-T) Adj.Geo.Mean) was 1370 ng·h/mL, the AUC(0-inf) ([4]; po, Study 3, TRT A: 5 mg oral liquid formulation administered orally, read-out: AUCinf Adj.Geo.Mean) was 1400 ng·h/mL and the AUC(0-t) ([4]; po, Study 3, TRT B: 5 mg oral liquid formulation (0.4 mg/mL × 12.5 mL) after Boost Plus via NGT, read-out: AUC(0-T) Geo. Mean (% CV)) was 1100 ng·h/mL. The AUC(0-inf) ([4]; po, Study 3, TRT B: 5 mg oral liquid formulation (0.4 mg/mL × 12.5 mL) after Boost Plus via NGT, read-out: AUCinf Geo. Mean (% CV)) was 1120 ng·h/mL, the half-life ([4]; po, Study 3, TRT B: 5 mg oral liquid formulation (0.4 mg/mL × 12.5 mL) after Boost Plus via NGT, read-out: T1/2 Mean (converted)) was 9.56 h and the Tmax ([4]; po, Study 3, TRT B: 5 mg oral liquid formulation (0.4 mg/mL × 12.5 mL) after Boost Plus via NGT) was 3 h. The AUC(0-t) ([4]; po, Study 3, TRT B: 5 mg oral liquid formulation after Boost Plus via NGT, read-out: AUC(0-T) Adj.Geo.Mean) was 1110 ng·h/mL and the AUC(0-inf) ([4]; po, Study 3, TRT B: 5 mg oral liquid formulation after Boost Plus via NGT, read-out: AUCinf Adj.Geo.Mean) was 1140 ng·h/mL.
